Where two headings read alike, the source gives them in different places. Each block holds one compound with its values, some of them ahead of it. Numbered stars: 1 amine (or outer) side, 2 acyl side, 3 side chain; on linkers, the order of the positions; unused ones are H or OH. Bridge positions count the residues as written; N and C are the ends. Square brackets hold non-standard residues; d marks the D form. Peptide text beside a SMILES is read from it. * marks the point of attachment. TtdsdLys(DOTA)NH2 = NC(=O)[C@@H](CCCCNC(=O)CN1CCN(CC(=O)O)CCN(CC(=O)O)CCN(CC(=O)O)CC1)NC(=O)CCC(=O)NCCCOCCOCCOCCCN*; DOTA = O=C(O)CN1CCN(CC(=O)O)CCN(CC(=O)*)CCN(CC(=O)O)CC1; Phe(4-Cl) = N[C@@H](Cc1ccc(Cl)cc1)C(=O)O; Arg(Me) = CNC(=N)NCCC[C@H](N)C(=O)O; X1 = O=C(CC1CCN([*:1])CC1)[*:2]; Lys(Me) = CNCCCC[C@H](N)C(=O)O; αMeD = C[C@](N)(CC(=O)O)C(=O)O; Tle = CC(C)(C)[C@H](N)C(=O)O; 4Amb = NCc1ccc(C(=O)O)cc1; Aib = CC(C)(N)C(=O)O; βAla = NCCC(=O)O
Tests used:
[1] = biological target: T1, Fc-fusion protein of human PSMA (hPSMA-Fc) (Homo sapiens, UniProt Q04609); assay: Surface plasmon resonance assay (Biacore T200, single cycle kinetic); format: binding; conditions: hPSMA-Fc, 25° C., read-out: pKD CAT (converted)
T1 construct: purchased Acro Biosystems PSA-H5264
Procedure, shortened: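 hPSMA-Fc was captured (~1000 RU) on an Fc-binding-peptide CM5 chip, and compounds were run in single cycle kinetic mode at 25° C in HBST with 0.1% DMSO. Double-blank-corrected sensorgrams were fitted to a 1:1 Langmuir model to give KD, reported as pKD.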

[2] = biological target: T2, PSMA-expressing C4-2 cells (Homo sapiens, UniProt Q04609); assay: FACS binding assay (competition with 50 nM PSM-0183); conditions: read-out: pIC50 [C4-2] CAT (converted)
T2 construct: PSMA-expressing C4-2 cells (ATCC, Cat. No. CRL-3314) were cultured in RPMI-1640; host or cells: C4-2 cells
Procedure, shortened: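 C4-2 cells were incubated 1 h at 4 °C with 50 nM AF488-labelled peptide PSM-0183 plus increasing test compound concentrations, then washed twice in ice-cold buffer. Median fluorescence in the AF488 channel was read by flow cytometry. IC50/pIC50 was derived by 4PL fitting of MFI versus concentration.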

[3] = pKD category for PSMA SPR activity assay
[4] = pIC50 category of FACS binding, C4-2 cells
[5] = SPR, single cycle kinetic, category
[6] = FACS binding, C4-2 cells, competition with 50 nM PSM-0183, category
[7] = FACS binding, PSMA-expressing C4-2 cells, pIC50 category

T1 sequence (Q04609 44-750 limits assumed): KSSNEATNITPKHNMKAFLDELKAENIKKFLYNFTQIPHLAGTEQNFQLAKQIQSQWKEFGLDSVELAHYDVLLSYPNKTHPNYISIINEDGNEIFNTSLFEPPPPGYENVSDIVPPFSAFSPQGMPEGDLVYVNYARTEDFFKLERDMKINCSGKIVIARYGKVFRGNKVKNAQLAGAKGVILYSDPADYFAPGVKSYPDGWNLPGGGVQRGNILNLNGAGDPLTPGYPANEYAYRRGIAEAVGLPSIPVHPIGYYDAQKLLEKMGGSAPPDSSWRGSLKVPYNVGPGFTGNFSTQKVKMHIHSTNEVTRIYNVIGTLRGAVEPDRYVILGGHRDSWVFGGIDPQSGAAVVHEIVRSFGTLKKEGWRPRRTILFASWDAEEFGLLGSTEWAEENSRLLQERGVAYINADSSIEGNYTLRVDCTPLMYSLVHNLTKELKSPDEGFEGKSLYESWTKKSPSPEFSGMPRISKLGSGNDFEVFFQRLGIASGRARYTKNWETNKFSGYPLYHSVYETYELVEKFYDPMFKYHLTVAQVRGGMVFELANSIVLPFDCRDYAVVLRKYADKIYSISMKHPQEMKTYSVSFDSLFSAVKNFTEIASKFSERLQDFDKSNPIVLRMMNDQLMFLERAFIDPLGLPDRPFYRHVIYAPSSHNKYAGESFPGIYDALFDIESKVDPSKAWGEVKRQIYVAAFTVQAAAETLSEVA
T2 sequence (Q04609 whole entry): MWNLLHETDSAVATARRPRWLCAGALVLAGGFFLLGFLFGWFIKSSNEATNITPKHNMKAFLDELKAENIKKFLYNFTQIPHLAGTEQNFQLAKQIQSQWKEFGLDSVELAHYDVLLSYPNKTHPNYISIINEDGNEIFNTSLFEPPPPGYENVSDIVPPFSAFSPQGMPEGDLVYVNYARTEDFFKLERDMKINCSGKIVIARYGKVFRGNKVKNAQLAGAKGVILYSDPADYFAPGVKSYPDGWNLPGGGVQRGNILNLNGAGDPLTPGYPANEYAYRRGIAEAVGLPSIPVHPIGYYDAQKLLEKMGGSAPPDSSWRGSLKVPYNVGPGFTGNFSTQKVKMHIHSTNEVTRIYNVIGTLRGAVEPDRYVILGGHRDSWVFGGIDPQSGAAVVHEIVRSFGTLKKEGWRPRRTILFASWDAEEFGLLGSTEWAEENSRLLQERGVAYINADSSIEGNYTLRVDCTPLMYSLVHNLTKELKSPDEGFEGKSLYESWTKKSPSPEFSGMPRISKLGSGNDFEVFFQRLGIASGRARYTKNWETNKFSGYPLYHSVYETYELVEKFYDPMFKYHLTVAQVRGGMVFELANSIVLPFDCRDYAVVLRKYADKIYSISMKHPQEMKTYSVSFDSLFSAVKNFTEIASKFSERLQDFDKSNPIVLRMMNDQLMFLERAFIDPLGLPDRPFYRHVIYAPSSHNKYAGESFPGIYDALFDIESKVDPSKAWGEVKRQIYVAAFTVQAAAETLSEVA

SMILES: CNCCCC[C@@H]1NC(=O)[C@@H](NC(=O)[C@H](Cc2ccc(Cl)cc2)NC(=O)C(C)(C)NC(=O)[C@@H](NC(=O)CC2CCN(C(=O)CN3CCN(CC(=O)O)CCN(CC(=O)O)CCN(CC(=O)O)CC3)CC2)[C@@H](C)O)CSSC[C@@H](C(=O)N[C@H](C(=O)N[C@H](C(N)=O)[C@@H](C)O)C(C)(C)C)NC(=O)[C@H](CC(N)=O)NC(=O)[C@@H](C)NC(=O)[C@H](CCCNC(=N)NC)NC1=O [PSM-0246, DOTA-Cmp-Thr-Aib-Pcf-[Cys-Lys(Me)-Arg(Me)-ala-Asn-Cys]-Tle-Thr-NH2] ({DOTA}-[X1]T[Aib][Phe(4-Cl)]C[Lys(Me)][Arg(Me)][dA]NC[Tle]T-NH2; disulfide 5-10)
- Kd [1, 5]: < 12.6 nM
- IC50 [2, 6]: < 200 nM

SMILES: C[C@@H](O)[C@H](NC(=O)[C@@H](NC(=O)[C@@H]1CSSC[C@H](NC(=O)[C@H](Cc2ccccc2)NC(=O)C(C)(C)NC(=O)[C@@H](NC(=O)CCNC(=O)CN2CCN(CC(=O)O)CCN(CC(=O)O)CCN(CC(=O)O)CC2)[C@@H](C)O)C(=O)N[C@@H](CCCCN)C(=O)N[C@@H](CCCNC(=N)N)C(=O)NC(C)(C)C(=O)N[C@@H](CC(N)=O)C(=O)N1)C(C)(C)C)C(N)=O [PSM-0209, DOTA-Bal-Thr-Aib-Phe-[Cys-Lys-Arg-Aib-Asn-Cys]-Tle-Thr-NH2] ({DOTA-βAla}-T[Aib]FCKR[Aib]NC[Tle]T-NH2; disulfide 4-9)
- Kd [1, 5]: < 12.6 nM
- IC50 [2, 6]: < 200 nM

SMILES: CC(=O)N[C@@H](Cc1ccccc1)C(=O)N[C@H]1CSSC[C@@H](C(=O)N[C@@H](CC(C)C)C(=O)N[C@H](C(=O)N[C@@H](CC(=O)O)C(=O)NCCCOCCOCCOCCCNC(=O)CCC(=O)N[C@H](CCCCNC(=O)CN2CCN(CC(=O)O)CCN(CC(=O)O)CCN(CC(=O)O)CC2)C(N)=O)[C@@H](C)O)NC(=O)[C@H](CC(N)=O)NC(=O)[C@H](C)NC(=O)[C@H](CCCNC(=N)N)NC(=O)[C@H](CCCCN)NC1=O [PSM-0323, Ac-Phe-[Cys-Lys-Arg-Ala-Asn-Cys]-Lou-Thr-Asp-Ttds-lys(DOTA)-NH2] (Ac-FCKRANCLTD-{TtdsdLys(DOTA)NH2}; disulfide 2-7)
- Kd ([1]; PSMA SPR assay, pKD category): > 501 nM
- IC50 [2, 7]: > 3160 nM

The remaining lines, values ahead:

- Kd [1, 3]: > 501 nM
- IC50 [2, 4]: > 3160 nM
SMILES: C[C@@H](O)[C@H](NC(=O)[C@@H](NC(=O)[C@@H]1CSSC[C@H](NC(=O)[C@H](Cc2ccccc2)NC(=O)C(C)(C)NC(=O)CN2CCN(CC(=O)O)CCN(CC(=O)O)CCN(CC(=O)O)CC2)C(=O)N[C@@H](CCCCN)C(=O)N[C@@H](CCCNC(=N)N)C(=O)NC(C)(C)C(=O)N[C@@H](CC(N)=O)C(=O)N1)C(C)(C)C)C(N)=O [PSM-0447, DOTA-Aib-Phe-[Cys-Lys-Arg-Aib-Asn-Cys]-Tle-Thr-NH2] ({DOTA}-[Aib]FCKR[Aib]NC[Tle]T-NH2; disulfide 3-8)

- Kd [1, 3]: < 12.6 nM
- IC50 [2, 4]: < 200 nM
SMILES: CC(=O)N[C@H](C(=O)NC(C)(C)C(=O)N[C@@H](Cc1ccccc1)C(=O)N[C@H]1CSSC[C@@H](C(=O)N[C@H](C(=O)N[C@@H](Cc2c[nH]c3ccccc23)C(N)=O)C(C)(C)C)NC(=O)[C@H](CC(N)=O)NC(=O)C(C)(C)NC(=O)[C@H](CCCNC(=N)N)NC(=O)[C@H](CCCCN)NC1=O)[C@@H](C)O [PSM-0376, Ac-Thr-Aib-Phe-[Cys-Lys-Arg-Aib-Asn-Cys]-Tle-Trp-NH2] (Ac-T[Aib]FCKR[Aib]NC[Tle]W-NH2; disulfide 4-9)

- Kd [1, 3]: 12.6 to 126 nM
- IC50 [2, 4]: < 200 nM
SMILES: CC(C)(NC(=O)c1ccc(CNC(=O)CN2CCN(CC(=O)O)CCN(CC(=O)O)CCN(CC(=O)O)CC2)cc1)C(=O)N[C@@H](Cc1ccccc1)C(=O)N[C@H]1CSSC[C@@H](C(=O)N[C@H](C(N)=O)C(C)(C)C)NC(=O)[C@H](CC(N)=O)NC(=O)C(C)(C)NC(=O)[C@H](CCCNC(=N)N)NC(=O)[C@H](CCCCN)NC1=O [PSM-0458, DOTA-Pamb-Aib-Phe-[Cys-Lys-Arg-Aib-Asn-Cys]-Tle-NH2] ({DOTA-4Amb}-[Aib]FCKR[Aib]NC[Tle]-NH2; disulfide 3-8)

- Kd ([1]; PSMA SPR assay, pKD category): 126 to 501 nM
- IC50 [2, 7]: 200 to 1260 nM
SMILES: C[C@@H](O)[C@H](NC(=O)[C@@H](NC(=O)[C@@H]1CSSC[C@H](NC(=O)[C@H](Cc2ccc(Cl)cc2)NC(=O)[C@](C)(CC(=O)O)NC(=O)[C@@H](NC(=O)CC2CCN(C(=O)CN3CCN(CC(=O)O)CCN(CC(=O)O)CCN(CC(=O)O)CC3)CC2)[C@@H](C)O)C(=O)N[C@@H](CCCCN)C(=O)N[C@@H](CCCNC(=N)N)C(=O)NC(C)(C)C(=O)N[C@@H](CC(N)=O)C(=O)N1)C(C)(C)C)C(N)=O [PSM-0346, DOTA-Cmp-Thr-Amd-Pcf-[Cys-Lys-Arg-Aib-Asn-Cys]-Tle-Thr-NH2] ({DOTA}-[X1]T[αMeD][Phe(4-Cl)]CKR[Aib]NC[Tle]T-NH2; disulfide 5-10)
